Legend:
[1] = Ring tensiometer
[2] = xn = mol fraction of the nth substance listed; details: Ring tensiometer

CC(C)(C)O [2-methylpropan-2-ol]
[1]
Details | surface tension liquid-gas [mN/m]
298.15 K | 19.96
308.15 K | 19.26
318.15 K | 18.35
328.15 K | 17.62

CC(C)(C)O [2-methylpropan-2-ol] + C[S+](C)[O-]
surface tension liquid-gas [mN/m], [2]
Details | 298.15 K | 308.15 K | 318.15 K | 328.15 K
x1 = 0.0183 | 39.25 | 38.29 | 37.56 | 36.51
x1 = 0.0361 | 36.85 | 36.01 | 35.32 | 34.28
x1 = 0.0695 | 34.2 | 33.39 | 32.73 | 31.66
x1 = 0.1008 | 32.36 | 31.54 | 30.78 | 29.89
x1 = 0.1301 | 31.04 | 30.17 | 29.53 | 28.54
x1 = 0.1832 | 29.19 | 28.35 | 27.71 | 26.83
x1 = 0.2302 | 28.08 | 27.23 | 26.53 | 25.71
x1 = 0.3096 | 26.31 | 25.51 | 24.96 | 24.17
x1 = 0.4022 | 24.98 | 24.21 | 23.69 | 22.86
x1 = 0.4928 | 23.72 | 23.02 | 22.37 | 21.63
x1 = 0.5736 | 22.87 | 22.01 | 21.36 | 20.63
x1 = 0.6322 | 22.19 | 21.4 | 20.85 | 20.06
x1 = 0.6767 | 21.72 | 21.02 | 20.47 | 19.71
x1 = 0.7115 | 21.51 | 20.85 | 20.18 | 19.38
x1 = 0.8511 | 20.64 | 19.92 | 19.03 | 18.26
x1 = 1 | 19.96 | 19.26 | 18.35 | 17.62

CC(C)CCO [3-methylbutan-1-ol]
[1]
Details | surface tension liquid-gas [mN/m]
298.15 K | 22.83
308.15 K | 22.02
318.15 K | 21.3
328.15 K | 20.49

CC(C)CCO [3-methylbutan-1-ol] + C[S+](C)[O-]
surface tension liquid-gas [mN/m], [2]
Details | 298.15 K | 308.15 K | 318.15 K | 328.15 K
x1 = 0.0033 | 41.6 | 40.66 | 39.65 | 38.38
x1 = 0.0065 | 40.98 | 40.12 | 39.19 | 37.83
x1 = 0.0129 | 40.07 | 39.09 | 38.42 | 37.08
x1 = 0.0255 | 38.5 | 37.78 | 37.05 | 35.84
x1 = 0.0377 | 37.32 | 36.8 | 35.85 | 34.87
x1 = 0.0783 | 34.25 | 33.78 | 32.99 | 32.37
x1 = 0.1307 | 31.96 | 31.49 | 30.9 | 30.18
x1 = 0.1774 | 30.51 | 30 | 29.39 | 28.79
x1 = 0.2572 | 28.72 | 28.06 | 27.39 | 26.8
x1 = 0.323 | 27.65 | 27.06 | 26.37 | 25.6
x1 = 0.378 | 26.87 | 26.28 | 25.59 | 24.91
x1 = 0.4456 | 26 | 25.48 | 24.78 | 23.98
x1 = 0.4999 | 25.54 | 24.81 | 24.06 | 23.39
x1 = 0.5578 | 25 | 24.23 | 23.51 | 22.81
x1 = 0.6036 | 24.54 | 23.78 | 22.99 | 22.19
x1 = 0.6491 | 24.14 | 23.36 | 22.7 | 21.82
x1 = 0.6851 | 23.81 | 23.11 | 22.46 | 21.51
x1 = 0.786 | 23.42 | 22.69 | 22.01 | 21.16
x1 = 0.8875 | 23.16 | 22.41 | 21.64 | 20.89
x1 = 0.9511 | 22.95 | 22.2 | 21.46 | 20.68
x1 = 1 | 22.83 | 22.02 | 21.3 | 20.49

C[S+](C)[O-] [dimethyl sulfoxide]
[1]
Details | surface tension liquid-gas [mN/m]
298.15 K | 42.28
308.15 K | 41.18
318.15 K | 40.14
328.15 K | 38.93

C[S+](C)[O-] [dimethyl sulfoxide] + CC(C)(C)O
[2], x2 = 0
Details | surface tension liquid-gas [mN/m]
298.15 K | 42.28
308.15 K | 41.18
318.15 K | 40.14
328.15 K | 38.93

C[S+](C)[O-] [dimethyl sulfoxide] + CC(C)CCO
[2], x2 = 0
Details | surface tension liquid-gas [mN/m]
298.15 K | 42.28
308.15 K | 41.18
318.15 K | 40.14
328.15 K | 38.93

— the NIST ThermoML archive (doi:10.1016/j.jct.2014.06.005)
